A value given as a limit tells only on which side of the number the result lay.

As a reminder, the IC50 is the concentration at which inhibition is half-maximal. Broadly, the EC50 is the concentration that produces a half-maximal response.

Format in all cases: cell-based
Test [1] deals with T1, Transient receptor potential cation channel subfamily M member 8 (Rattus norvegicus, UniProt Q8R455). The test is described as follows: Antagonist activity against rat TRPM8 expressed in HEK293 cells assessed as inhibition of icilin-induced intracellular Ca2+ level pre-treated 5 mins before icilin stimulation by Fluo-4-AM dye based spectrofluorimetry.
T1 sequence (Q8R455 whole entry): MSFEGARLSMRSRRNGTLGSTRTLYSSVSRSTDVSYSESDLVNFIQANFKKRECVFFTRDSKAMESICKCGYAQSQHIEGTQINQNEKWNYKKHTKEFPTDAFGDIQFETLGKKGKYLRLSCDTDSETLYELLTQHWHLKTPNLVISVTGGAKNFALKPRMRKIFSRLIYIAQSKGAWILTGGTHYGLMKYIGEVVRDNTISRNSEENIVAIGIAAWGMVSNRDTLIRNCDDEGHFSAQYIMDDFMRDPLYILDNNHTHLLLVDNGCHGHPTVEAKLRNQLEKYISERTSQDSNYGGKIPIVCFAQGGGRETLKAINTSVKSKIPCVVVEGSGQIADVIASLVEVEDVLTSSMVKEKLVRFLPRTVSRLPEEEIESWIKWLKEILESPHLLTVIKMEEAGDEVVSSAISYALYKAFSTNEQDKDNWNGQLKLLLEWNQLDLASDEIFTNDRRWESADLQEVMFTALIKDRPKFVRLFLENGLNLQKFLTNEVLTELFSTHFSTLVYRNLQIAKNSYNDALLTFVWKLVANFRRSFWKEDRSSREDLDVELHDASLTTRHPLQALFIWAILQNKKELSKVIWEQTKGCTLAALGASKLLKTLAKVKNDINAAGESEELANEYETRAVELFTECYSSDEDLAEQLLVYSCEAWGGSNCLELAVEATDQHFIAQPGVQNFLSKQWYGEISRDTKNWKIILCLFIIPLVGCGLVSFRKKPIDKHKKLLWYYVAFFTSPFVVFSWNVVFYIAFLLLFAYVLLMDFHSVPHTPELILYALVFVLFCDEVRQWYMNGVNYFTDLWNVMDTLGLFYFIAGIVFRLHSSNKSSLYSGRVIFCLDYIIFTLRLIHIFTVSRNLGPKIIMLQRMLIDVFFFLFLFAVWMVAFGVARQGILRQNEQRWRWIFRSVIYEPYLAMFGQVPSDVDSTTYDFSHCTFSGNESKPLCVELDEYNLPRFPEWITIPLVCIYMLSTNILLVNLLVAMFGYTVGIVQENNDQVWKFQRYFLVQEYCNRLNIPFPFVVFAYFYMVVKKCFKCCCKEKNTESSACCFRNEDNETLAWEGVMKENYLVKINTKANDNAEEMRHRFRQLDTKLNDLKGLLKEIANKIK
Test [2] concerns the target T1, Transient receptor potential cation channel subfamily M member 8. Kind of test: Agonist activity at rat TRPM8 expressed in HEK293 cells assessed as induction of intracellular Ca2+ level by Fluo-4-AM dye based spectrofluorimetry.
In test [3] the target is Transient receptor potential cation channel subfamily M member 8 (Rattus norvegicus) (UniProt Q8R455). Kind of test: Agonist activity at rat TRPM8 expressed in HEK293 cells assessed as induction of intracellular Ca2+ level by Fluo-4-AM dye based spectrofluorimetry relative to 4 uM ionomycin.
Chain of Transient receptor potential cation channel subfamily M member 8 (Rattus norvegicus) (Q8R455 whole entry, looked up): as the sequence (Q8R455 whole entry) above
Test [4] deals with Transient receptor potential cation channel subfamily V member 1 (Homo sapiens, UniProt Q8NER1). The test is described as follows: Antagonist activity against human TRPV1 expressed in HEK293 cells assessed as inhibition of capsaicin-induced intracellular Ca2+ level pre-treated 5 mins before capsaicin stimulation by Fluo-4-AM dye based spectrofluorimetry.
Chain of Transient receptor potential cation channel subfamily V member 1 (Q8NER1 whole entry): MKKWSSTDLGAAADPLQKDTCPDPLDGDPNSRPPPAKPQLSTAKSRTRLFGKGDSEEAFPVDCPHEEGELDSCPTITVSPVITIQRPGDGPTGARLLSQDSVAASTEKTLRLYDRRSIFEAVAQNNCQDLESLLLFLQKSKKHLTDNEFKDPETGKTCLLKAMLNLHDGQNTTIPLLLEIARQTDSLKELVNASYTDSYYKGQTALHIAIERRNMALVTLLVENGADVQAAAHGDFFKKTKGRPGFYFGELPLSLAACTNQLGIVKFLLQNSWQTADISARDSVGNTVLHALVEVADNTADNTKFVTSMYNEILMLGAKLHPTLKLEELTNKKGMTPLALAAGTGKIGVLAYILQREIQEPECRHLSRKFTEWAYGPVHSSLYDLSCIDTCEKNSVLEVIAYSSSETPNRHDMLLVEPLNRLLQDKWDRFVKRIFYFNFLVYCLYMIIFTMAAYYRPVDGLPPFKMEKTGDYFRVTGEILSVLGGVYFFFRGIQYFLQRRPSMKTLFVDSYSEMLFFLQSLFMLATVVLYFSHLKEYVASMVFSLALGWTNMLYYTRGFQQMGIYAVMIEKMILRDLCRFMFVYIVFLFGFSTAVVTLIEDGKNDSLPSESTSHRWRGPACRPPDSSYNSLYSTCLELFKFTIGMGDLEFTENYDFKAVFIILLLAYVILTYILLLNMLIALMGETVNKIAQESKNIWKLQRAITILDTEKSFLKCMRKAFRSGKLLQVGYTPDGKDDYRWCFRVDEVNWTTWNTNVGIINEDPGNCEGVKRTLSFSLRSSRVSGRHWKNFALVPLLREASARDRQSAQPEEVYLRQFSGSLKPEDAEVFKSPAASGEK

Turning to `O=C1NC(c2cccc([N+](=O)[O-])c2)=CCN1c1ccccc1Br`, the IC50 in test [1] is 1.03 µM. In addition, the EC50 in test [2] was determined as 0.62 µM. The Efficacy in test [3] was found to be 48.2%.

`O=C1NC(c2ccc([N+](=O)[O-])cc2)=CCN1c1ccc(O)cc1`: the IC50 in test [1] came to 11.4 µM. Moreover, the Efficacy in test [3] is below 10%.

Take `Cc1ccc(N2CC=C(c3cccc([N+](=O)[O-])c3)NC2=O)c(O)c1`: the IC50 in test [1] stood at 1.4 µM. In addition, the EC50 in test [2] turned out to be 1.2 µM. Moreover, the Efficacy in test [3] worked out at 46%.

With `Cc1ccccc1NC(=O)/C=C/c1cccc([N+](=O)[O-])c1`, the IC50 in test [1] is 2 µM; in test [4] it was above 10 µM.

Consider `COc1cccc(N2CC=C(c3cccc([N+](=O)[O-])c3)N(C)C2=O)c1`, for which the IC50 in test [1] turned out to be 68.4 µM. For the same molecule, the Efficacy in test [3] was below 10%.

With `Cc1ccc(O)c(N2CC=C(c3ccc([N+](=O)[O-])cc3)NC2=O)c1`, in test [1], the IC50 was 16.9 µM. Moreover, in test [3], the Efficacy was below 10%.

Consider `O=c1[nH]c(-c2cccc([N+](=O)[O-])c2)cn1-c1ccccc1O`, for which, in test [1], the IC50 is 3.5 µM. In addition, the Efficacy in test [3] is below 10%.

In the case of `NC(=O)c1ccccc1N1CC=C(c2ccc([N+](=O)[O-])cc2)NC1=O`, in test [1], the IC50 was found to be 11.4 µM. In addition, in test [3], the Efficacy is below 10%.

On to `O=C(/C=C/c1cccc([N+](=O)[O-])c1)Nc1ccccc1O`, for which the IC50 in test [1] was 1.9 µM; in test [4], above 10 µM.

Take `CCNC(=O)c1ccccc1N1CC=C(c2cccc([N+](=O)[O-])c2)NC1=O`: in test [1], the IC50 is 22 µM. Further, the Efficacy in test [3] is below 10%.

Regarding `COc1ccc(N2CC=C(c3cccc([N+](=O)[O-])c3)NC2=O)cc1`, the IC50 in test [1] is 40 µM. Further, the Efficacy in test [3] was below 10%.

In the case of `O=C1NC(c2cccc([N+](=O)[O-])c2)=CCN1c1cccc(O)c1`, in test [1], the IC50 was 1.5 µM. Moreover, the EC50 in test [2] amounted to 1.7 µM. The Efficacy in test [3] was found to be 62%.

With `O=C(/C=C/c1cccc([N+](=O)[O-])c1)Nc1cccc(Br)c1`, the IC50 in test [1] is 0.14 µM; in test [4], 2.5 µM.

Take `O=C1NC(c2cccc([N+](=O)[O-])c2)=CCN1c1cccc(Br)c1`: the IC50 in test [1] came to 1.5 µM. Also, the EC50 in test [2] was 0.6 µM. For the same molecule, the Efficacy in test [3] was found to be 47%.

As for `O=C(/C=C/c1cccc([N+](=O)[O-])c1)Nc1ccccc1Cl`, the IC50 in test [1] is 1.7 µM; in test [4] it was above 10 µM.

Turning to `CS(=O)(=O)Nc1cccc(N2CC=C(c3cccc([N+](=O)[O-])c3)NC2=O)c1`, the IC50 in test [1] is 46.4 µM. The Efficacy in test [3] was below 10%.

Take `O=C(/C=C/c1cccc([N+](=O)[O-])c1)Nc1ccccc1Br`: the IC50 in test [1] was 1.5 µM; in test [4], above 10 µM.

As for `COc1cccc(-n2cc(-c3cccc([N+](=O)[O-])c3)[nH]c2=O)c1`, the IC50 in test [1] worked out at 33.9 µM. Also, the Efficacy in test [3] is below 10%.

Consider `O=C1NC(c2ccc([N+](=O)[O-])cc2)=CCN1c1ccccc1O`, for which, in test [1], the IC50 was determined as 5.7 µM. Besides, in test [3], the Efficacy is below 10%.

With `CS(=O)(=O)Nc1cccc(-n2cc(-c3cccc([N+](=O)[O-])c3)[nH]c2=O)c1`, in test [1], the IC50 came to 26 µM. The Efficacy in test [3] was below 10%.

As for `O=C(/C=C/c1cccc([N+](=O)[O-])c1)Nc1cccc(O)c1`, the IC50 in test [1] and in test [4] was above 10 µM each time.

Take `CS(=O)(=O)Nc1ccccc1NC(=O)/C=C/c1cccc([N+](=O)[O-])c1`: the IC50 in test [1] and in test [4] was above 10 µM in each case.

On to `COc1cccc(NC(=O)/C=C/c2cccc([N+](=O)[O-])c2)c1`, for which the values for the half-inhibitory concentration (IC50) in test [1] and in test [4] were 1.1 µM and 2.1 µM, respectively.

With `O=C1NC(c2cccc([N+](=O)[O-])c2)=CCN1c1ccccc1I`, the IC50 in test [1] was 3.2 µM. The EC50 in test [2] was 1.2 µM. In test [3], the Efficacy came out at 52.7%.

For `O=C1NC(c2cccc([N+](=O)[O-])c2)=CCN1c1ccccc1O` [ICILLIN], the IC50 in test [1] was found to be 0.058 µM. Besides, the Efficacy in test [3] came out at 75.1%.

Take `O=C(/C=C/c1cccc([N+](=O)[O-])c1)Nc1ccccc1CO`: the IC50 in test [1] and in test [4] was above 10 µM throughout.

In the case of `Cc1ccc(O)c(N2CC=C(c3cccc([N+](=O)[O-])c3)NC2=O)c1`, the IC50 in test [1] was found to be 0.26 µM. In addition, the EC50 in test [2] came to 0.14 µM. Also, in test [3], the Efficacy came to 69.4%.

As to `O=C1NC2=C(CCc3ccc([N+](=O)[O-])cc32)CN1c1ccccc1O`, the IC50 in test [1] was 18.1 µM. Also, in test [3], the Efficacy is below 10%.

Regarding `COc1ccccc1N1CC=C(c2cccc([N+](=O)[O-])c2)NC1=O`, the IC50 in test [1] came out at 8.3 µM. The EC50 in test [2] came to 1.1 µM. Besides, in test [3], the Efficacy was 18.5%.

On to `O=C1NC(c2cccc([N+](=O)[O-])c2)=CCN1c1ccc(O)cc1`, for which the IC50 in test [1] worked out at 11.3 µM. Besides, in test [3], the Efficacy was below 10%.

With `O=C1NC(c2cccc([N+](=O)[O-])c2)=CCN1c1cccc(CO)c1`, the IC50 in test [1] amounted to 15.7 µM. The Efficacy in test [3] is below 10%.

In the case of `CC(C)c1ccccc1NC(=O)/C=C/c1cccc([N+](=O)[O-])c1`, the IC50 was 6.1 µM in test [1] and above 10 µM in test [4].

For `O=C1NC(c2cccc([N+](=O)[O-])c2)=CCN1c1ccccc1F`, in test [1], the IC50 was found to be 8.7 µM. Moreover, the Efficacy in test [3] was below 10%.

On to `CC(C)(C)c1cccc(NC(=O)/C=C/c2cccc([N+](=O)[O-])c2)c1`, for which the IC50 is 0.6 µM in test [1] and above 10 µM in test [4].

Regarding `O=C1NC(c2cccc([N+](=O)[O-])c2)=CCN1c1cccc(I)c1`, the IC50 in test [1] came out at 0.47 µM. The EC50 in test [2] was 0.3 µM. Further, the Efficacy in test [3] was 30.9%.

As for `COc1ccccc1NC(=O)/C=C/c1cccc([N+](=O)[O-])c1`, the IC50 in test [1] turned out to be 1.8 µM; in test [4], 10.7 µM.

For `O=C1NC(c2cccc([N+](=O)[O-])c2)=CCN1c1ccccc1CO`, the IC50 in test [1] was 12 µM. In test [2], the EC50 amounted to 5 µM. Also, in test [3], the Efficacy is 20.4%.

`O=C1NC(c2ccc([N+](=O)[O-])cc2)=CCN1c1cccc(O)c1`: the IC50 in test [1] was found to be 10.9 µM. For the same molecule, the Efficacy in test [3] is below 10%.

For `O=C1NC(c2cccc([N+](=O)[O-])c2)=CCN1c1ccccc1Cl`, the IC50 in test [1] is 0.95 µM. For the same molecule, the EC50 in test [2] was 0.89 µM. The Efficacy in test [3] was determined as 41.8%.

For `COc1cccc(N2CC=C(c3cccc([N+](=O)[O-])c3)NC2=O)c1`, the IC50 in test [1] came to 0.24 µM. For the same molecule, the EC50 in test [2] came out at 0.13 µM. Besides, the Efficacy in test [3] was 57.5%.

As to `O=C(/C=C/c1cccc([N+](=O)[O-])c1)Nc1cccc(Cl)c1`, the IC50 was 0.17 µM in test [1] and 7.1 µM in test [4].

With `CC1=C(c2cccc([N+](=O)[O-])c2)NC(=O)N(c2ccccc2O)C1`, the IC50 in test [1] came to 14.3 µM. The EC50 in test [2] was above 10 µM. Besides, the Efficacy in test [3] came out at 10.8%.

Take `O=C1NC(c2cccc([N+](=O)[O-])c2)=CCN1c1cccc(Cl)c1`: the IC50 in test [1] is 4.4 µM. The EC50 in test [2] was found to be 1.5 µM. In addition, the Efficacy in test [3] amounted to 45.6%.

Turning to `Cc1cccc(NC(=O)/C=C/c2cccc([N+](=O)[O-])c2)c1`, the IC50 is 0.4 µM in test [1] and above 10 µM in test [4].

With `O=C(CCc1cccc([N+](=O)[O-])c1)Nc1cccc(I)c1`, the IC50 turned out to be 0.43 µM in test [1] and 4.3 µM in test [4].

For the molecule `COc1ccccc1N1CC2=C(NC1=O)c1ccccc1CC2`, in test [1], the IC50 worked out at 6.6 µM. In addition, in test [3], the Efficacy was below 10%.

In the case of `O=C1NC2=C(CCc3c2cccc3[N+](=O)[O-])CN1c1ccccc1O`, the IC50 in test [1] was 3.1 µM. For the same molecule, the Efficacy in test [3] was below 10%.

With `NC(=O)c1ccccc1N1CC=C(c2cccc([N+](=O)[O-])c2)NC1=O`, the IC50 in test [1] was found to be 8.3 µM. The EC50 in test [2] stood at 15.4 µM. Further, the Efficacy in test [3] was determined as 47.2%.

`O=C(/C=C/c1cccc([N+](=O)[O-])c1)Nc1cccc(I)c1`: the results for the IC50 in test [1] and in test [4] were 0.073 µM and 1.2 µM, respectively.

As for `COc1ccccc1N1CC=C(c2ccc([N+](=O)[O-])cc2)NC1=O`, the IC50 in test [1] is 11.4 µM. The Efficacy in test [3] is below 10%.

As for `O=C(/C=C/c1cccc([N+](=O)[O-])c1)Nc1ccccc1I`, the IC50 in test [1] was 1.05 µM; in test [4] it was above 10 µM.

`O=C(/C=C/c1cccc([N+](=O)[O-])c1)Nc1cccc(CO)c1`: the IC50 in test [1] worked out at 6.5 µM; in test [4], 6.1 µM.

Regarding `CC(C)c1cccc(NC(=O)/C=C/c2cccc([N+](=O)[O-])c2)c1`, the IC50 in test [1] was found to be 0.17 µM; in test [4], 4.1 µM.

In the case of `O=C1NC2=C(CCc3ccccc32)CN1c1ccccc1O`, the IC50 in test [1] turned out to be 5.7 µM. For the same molecule, in test [3], the Efficacy was below 10%.

For the origin of these results see ChEMBL document CHEMBL3421598, “Structure-activity relationships of the prototypical TRPM8 agonist icilin” (Bioorg Med Chem Lett, 2015).
